Data set [1] concerns the target C-X-C chemokine receptor type 4 (Homo sapiens, UniProt P61073). Briefly: Antagonist activity at CXCR4 receptor in human CCRF-CEM cells assessed as inhibition of SDF-1alpha-induced calcium release preincubated for 25 mins followed by SDF-1alpha addition and monitered for 90 sec. It counts as functional, cell-based.
Data set [2] is described as follows: Metabolic stability in human liver microsomes assessed as parent compound remaining incubated for 10 mins in presence of NADPH. Format: ADME, Microsome. The following applies: read-out: Stabilty. On the technique in general: Microsomes from liver hold many membrane-bound enzymes, among them those of drug oxidation.
A short description of data set [3]: Metabolic stability in rat liver microsomes assessed as parent compound remaining incubated for 10 mins in presence of NADPH. It counts as ADME, Microsome. The following applies: read-out: Stabilty.
Data set [4] is described as follows: Metabolic stability in mouse liver microsomes assessed as parent compound remaining incubated for 10 mins in presence of NADPH. It counts as ADME, Microsome. The following applies: read-out: Stabilty.
In data set [5] the target is Cytochrome P450 2D6 (Homo sapiens, UniProt P10635). Briefly: Inhibition of human recombinant CYP2D6 expressed in insect cells using AMMC as substrate preincubated for 30 mins followed by NADPH regenerating system addition and measured after 45 mins by fluorescence based assay. Format: ADME.
Chain of Cytochrome P450 2D6 (P10635 whole entry): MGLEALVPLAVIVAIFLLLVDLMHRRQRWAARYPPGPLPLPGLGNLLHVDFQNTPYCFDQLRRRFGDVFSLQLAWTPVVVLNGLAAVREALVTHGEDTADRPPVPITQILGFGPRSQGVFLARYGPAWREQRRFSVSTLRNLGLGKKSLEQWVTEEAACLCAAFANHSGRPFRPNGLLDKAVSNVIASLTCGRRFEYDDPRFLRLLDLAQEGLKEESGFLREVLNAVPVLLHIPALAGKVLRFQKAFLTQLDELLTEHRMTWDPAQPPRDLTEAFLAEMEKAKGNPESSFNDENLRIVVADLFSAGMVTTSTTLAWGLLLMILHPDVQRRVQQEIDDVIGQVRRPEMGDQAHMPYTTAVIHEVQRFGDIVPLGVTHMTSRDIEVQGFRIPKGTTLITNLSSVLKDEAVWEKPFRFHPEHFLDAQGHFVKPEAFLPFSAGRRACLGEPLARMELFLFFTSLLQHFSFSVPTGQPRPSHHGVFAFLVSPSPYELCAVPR
Data set [6] deals with Cytochrome P450 3A4 (Homo sapiens, UniProt P08684). Description: Inhibition of CYP3A4 (unknown origin). Format: ADME.
Chain of Cytochrome P450 3A4 (P08684 whole entry): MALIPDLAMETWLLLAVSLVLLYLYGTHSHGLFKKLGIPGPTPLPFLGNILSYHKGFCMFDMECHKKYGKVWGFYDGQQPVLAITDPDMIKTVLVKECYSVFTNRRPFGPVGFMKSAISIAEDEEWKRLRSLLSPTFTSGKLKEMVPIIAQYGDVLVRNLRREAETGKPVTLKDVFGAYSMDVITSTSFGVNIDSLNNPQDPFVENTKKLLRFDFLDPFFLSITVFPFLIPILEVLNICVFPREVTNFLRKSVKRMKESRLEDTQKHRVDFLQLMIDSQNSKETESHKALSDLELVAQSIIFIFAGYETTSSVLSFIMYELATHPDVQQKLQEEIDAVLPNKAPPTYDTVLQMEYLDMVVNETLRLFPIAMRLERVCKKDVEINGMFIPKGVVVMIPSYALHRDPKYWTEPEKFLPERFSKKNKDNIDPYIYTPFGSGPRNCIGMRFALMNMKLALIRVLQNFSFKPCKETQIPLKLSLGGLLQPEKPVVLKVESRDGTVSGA
A short description of data set [7]: cells. The following applies: Homo sapiens, CCRF-CEM.
Description: Antagonist activity at muscarinic acetylcholine receptor in human CCRF-CEM cells assessed as inhibition of acetylcholine-induced calcium release preincubated for 25 mins followed by acetylcholine addition and monitered for 90 sec
Data set [8] can be described thus: Permeability of the compound at pH 7.4 incubated for 4 hrs by PAMPA. Format: ADME. To be noted: read-out: permeability. A general note: PAMPA measures passive passage across an artificial lipid membrane.
For data set [9], the target named is Cytochrome P450 2C9 (Homo sapiens, UniProt P11712). Briefly: Inhibition of CYP2C9 (unknown origin). Format: ADME.
Chain of Cytochrome P450 2C9 (P11712 whole entry): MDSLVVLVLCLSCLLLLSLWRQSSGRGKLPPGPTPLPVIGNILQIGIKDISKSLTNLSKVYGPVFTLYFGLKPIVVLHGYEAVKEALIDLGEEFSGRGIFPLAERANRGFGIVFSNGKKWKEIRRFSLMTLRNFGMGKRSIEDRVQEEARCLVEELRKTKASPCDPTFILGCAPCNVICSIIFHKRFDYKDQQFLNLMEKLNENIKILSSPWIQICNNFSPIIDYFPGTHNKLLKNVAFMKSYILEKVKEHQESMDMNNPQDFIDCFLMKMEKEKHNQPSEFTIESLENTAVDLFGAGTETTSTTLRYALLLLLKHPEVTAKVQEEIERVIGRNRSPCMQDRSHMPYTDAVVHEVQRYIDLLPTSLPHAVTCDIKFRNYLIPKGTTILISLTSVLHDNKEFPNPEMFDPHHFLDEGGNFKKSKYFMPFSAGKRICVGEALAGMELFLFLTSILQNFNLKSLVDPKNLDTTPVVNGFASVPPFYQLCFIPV
The nature of data set [10]: AUC (0 to 8 hrs) in CD-1 mouse at 30 mg/kg, po or at 3 mg/kg, iv measured up to 8 hrs by UPLC-MS/MS analysis. It counts as ADME, organism-based. The arrangement: dose 30 mg/kg, time <=8. To be noted: in vivo.
A short description of data set [11]: Volume of distribution in CD-1 mouse at 30 mg/kg, po or at 3 mg/kg, iv by UPLC-MS/MS analysis. It counts as ADME, organism-based. To be noted: in vivo.
Data set [12] in a line: Half life in CD-1 mouse at 30 mg/kg, po or at 3 mg/kg, iv by UPLC-MS/MS analysis. The following applies: in vivo.
A short description of data set [13]: Oral bioavailability in CD-1 mouse at 30 mg/kg measured upto 8 hrs by UPLC-MS/MS analysis. Format: ADME, organism-based. The following applies: in vivo.

Chain of C-X-C chemokine receptor type 4 (P61073 whole entry): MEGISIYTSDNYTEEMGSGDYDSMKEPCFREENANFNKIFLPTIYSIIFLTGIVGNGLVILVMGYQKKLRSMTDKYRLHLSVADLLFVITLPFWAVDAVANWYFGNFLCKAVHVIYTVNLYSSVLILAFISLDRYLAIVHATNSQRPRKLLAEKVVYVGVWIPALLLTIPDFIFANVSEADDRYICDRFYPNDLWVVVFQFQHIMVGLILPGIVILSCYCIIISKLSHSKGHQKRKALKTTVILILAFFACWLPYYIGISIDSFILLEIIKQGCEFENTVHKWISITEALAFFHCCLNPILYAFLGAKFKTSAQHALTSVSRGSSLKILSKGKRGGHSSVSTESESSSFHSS

The IC50 is the point on the concentration scale where inhibition reaches its midpoint. `CN(C[C@H]1Cc2c(cccc2NC2CCNCC2)CN1)[C@H]1CCCc2cccnc21`: the IC50 was 0.0181 µM in data set [1], > 20 µM in data set [5], > 20 µM in [6] and > 16.7 µM in [7]. Also, the remaining at 10 min in data set [2] worked out at 75%; in [3], 9.79%; in [4], 10.9%.

For the compound `CN(C[C@H]1Cc2c(cccc2N2C[C@H]3CCN(C)[C@H]3C2)CN1)[C@H]1CCCc2cccnc21`, the IC50 in [1] was 0.0187 µM; in [5] it was 17.3 µM; in data set [6], > 20 µM; in data set [7], 2.9 µM. Moreover, the remaining at 10 min came to 97.6% in data set [2] and 11.2% in [3]. For the same compound, the Papp at 4 h in data set [8] stood at 1.9 ×10⁻⁶ cm/s.

Consider `CN(C[C@@H]1Cc2c(cccc2NC2CCNCC2)CN1)[C@H]1CCCc2cccnc21`, for which the IC50 in [1] is 1.67 µM; in data set [5], > 20 µM; in data set [6], > 20 µM; in data set [7], > 16.7 µM. The remaining at 10 min in data set [2] worked out at 79.9%; in data set [3], 26.2%; in data set [4], 12.4%.

On to `CN(C)C1CCN(c2cccc3c2C[C@H](CN(C)[C@H]2CCCc4cccnc42)NC3)CC1`, for which the IC50 in [1] is 0.0359 µM; in data set [5], > 20 µM; in data set [6] it was > 20 µM; in [9], 6.67 µM; in [7] it was > 16.7 µM. Moreover, the remaining at 10 min in data set [2] turned out to be 78.4%; in [3] it was 52.4%; in [4], 70.2%. Also, in data set [8], the Papp at 4 h is 4.4 ×10⁻⁶ cm/s.

Take `CN(C[C@H]1Cc2c(cccc2N[C@H]2CC[C@H](N)CC2)CN1)[C@H]1CCCc2cccnc21`: the figures for the remaining at 10 min in data set [2], in [3] and in data set [4] were 100%, 75% and 100%, respectively. The IC50 in data set [5] is > 20 µM; in data set [6] it was > 20 µM; in [7] it was 0.826 µM.

Consider `CN1CCC(N(C)c2cccc3c2C[C@H](CN(C)[C@H]2CCCc4cccnc42)NC3)CC1`, for which the IC50 is 0.0134 µM in data set [1], > 20 µM in data set [5], > 20 µM in data set [6] and > 16.7 µM in data set [7]. Further, the remaining at 10 min in [2] is 88.8%; in [3] it was 6.52%. Besides, in data set [8], the Papp at 4 h came out at 1 ×10⁻⁶ cm/s.

In the case of `CN(C[C@H]1Cc2c(cccc2N2C[C@H]3CNC[C@H]3C2)CN1)[C@H]1CCCc2cccnc21`, the IC50 in data set [1] is 0.0103 µM; in data set [5], 7.81 µM; in data set [6], > 20 µM; in data set [7] it was 6.39 µM. Moreover, the figures for the remaining at 10 min in data set [2], in [3] and in data set [4] were 86.7%, 38.1% and 54.7%, respectively.

Take `CN(C)C1CCN(c2cccc3c2C[C@H](CN(C)[C@H]2CCCc4cccnc42)NC3)C1` (single isomer, unassigned; 36): the IC50 in [1] is 0.0104 µM; in [5] it was 3.67 µM; in data set [6] it was > 20 µM; in data set [7] it was > 5.56 µM. The remaining at 10 min came out at 3.88% in [3] and 28.2% in [4]. In addition, in data set [8], the Papp at 4 h amounted to 1.4 ×10⁻⁶ cm/s.

Regarding `CN1C[C@@H]2CN(c3cccc4c3C[C@H](CN(C)[C@H]3CCCc5cccnc53)NC4)C[C@@H]2C1`, the IC50 in data set [1] was 0.00956 µM; in data set [5], > 20 µM; in data set [6], > 20 µM; in data set [7] it was > 33.3 µM. The remaining at 10 min was found to be 100% in [2], 35.3% in data set [3] and 32.9% in data set [4]. In addition, in [8], the Papp at 4 h was 0.5 ×10⁻⁶ cm/s.

Take `CN1CC[C@H]2CN(c3cccc4c3C[C@H](CN(C)[C@H]3CCCc5cccnc53)NC4)C[C@H]21`: the IC50 was 0.0114 µM in data set [1], 18.6 µM in [5], > 20 µM in [6] and 11.9 µM in [7]. Further, the remaining at 10 min in data set [2] was found to be 87.3%; in [3], 1.78%; in [4], 24%. Also, the Papp at 4 h in [8] was 0.9 ×10⁻⁶ cm/s.

On to `CN(C[C@H]1Cc2c(cccc2N2CCC(N)CC2)CN1)[C@H]1CCCc2cccnc21`, for which the IC50 is 0.0334 µM in data set [1], 3.96 µM in [5], > 20 µM in data set [6] and > 33.3 µM in [7]. In addition, the remaining at 10 min in [2] came out at 80.8%; in [3], 38.4%; in data set [4] it was 70.3%.

In general, AUC(0-t) refers to the area under the concentration-time curve up to a stated or last time point. Read a low AUC(0-t) as low exposure. For orientation: half-life means how long it takes for the measured level to halve. High values mean slow loss, low ones fast loss. As usually defined, the bioavailability is dose-corrected exposure relative to a reference, in per cent. A high value points to good availability. `NCCCCN(Cc1nc2ccccc2[nH]1)[C@H]1CCCc2cccnc21` [MAVORIXAFOR] yielded an AUC(0-t) in data set [10] of 101 ng·h/mL. The compound also came in with a Vd in data set [11] of 32.2 L/kg. In data set [12], the half-life was 3.1 h. In addition, in data set [13], the bioavailability was found to be 2.4%.

As for `CN(C)C1CCN(c2cccc3c2C[C@H](CN(C)[C@H]2CCCc4cccnc42)NC3)C1` (single isomer, unassigned; 37), the IC50 was 0.0109 µM in data set [1], 15.4 µM in data set [5], > 20 µM in data set [6] and 12.3 µM in data set [7]. The values for the remaining at 10 min in data set [2], in data set [3] and in data set [4] were 67.5%, 4.55% and 18.5%, respectively. In [8], the Papp at 4 h came to 1.6 ×10⁻⁶ cm/s.

Source of the values: ChEMBL document CHEMBL4842390, “Amino-Heterocycle Tetrahydroisoquinoline CXCR4 Antagonists with Improved ADME Profiles via Late-Stage Buchwald Couplings” (ACS Med Chem Lett, 2021).
